Experimental data taken from US20230220021A1, “CYCLIC PEPTIDE INHIBITORS OF PSD-95 AND USES THEREOF” (University of Copenhagen, priority 2020, published 2023).
Where a SMILES comes first, the peptide text is derived from it. [ ]: non-standard residue; d: D form.

Experiments:
[1] = biological target: T1, PSD-95-PDZ2 (Homo sapiens, UniProt P78352); assay: Fluorescence polarization (FP) competition assay against cyclic nNOS TAMRA probe; assay type: binding; settings: for Relative Ki (Ki mut/Ki WT): FP inhibition constant normalized to WT value; for Ki: FP competition, cyclic nNOS TAMRA probe, mean of triplicates, N.B. = not binding, read-out: Ki
T1 construct: 7xHis (N); made in house; host or cells: Escherichia coli B21 pLys (for the mutants, 'as previously described')

[2] = biological target: T2, PSD-95-PDZ2 (Homo sapiens, UniProt P78352, V178C); assay: SPOT peptide array screening with TAMRA labelled PSD-95-PDZ2; assay type: binding; settings: SPOT array, TAMRA labelled PSD-95-PDZ2-V178C, normalized to WT
T2 construct: screened with the TAMRA labelled PSD-95-PDZ2-V178C domain; 7xHis (N); made in house
Description: SPOT peptide array synthesis. To generate the cyclic nNOSβ-hairpin arrays, we used the Intavis MultiPep spotter (Intavis Bioanalytical instruments). The membranes employed in this assay were SynthoPlan APEG CE (standard amino-modified acid stable sellulose membrane with a PEG-spacer), 10×15 cm with a loading of 400 nmol cm^−2. Solutions of 0.3 M Fmoc-AA-OH and 0.3 M Oxyma Pure were prepared in N-methyl-2-pyrrolidone (NMP). The activator solution consisted of 0.3 M DIC and 0.3 M of 2,4,6-trimethylpyridine (Collidine) in NMP. The capping solution consisted of a solution of 1 M acetic anhydride and 0.05 M of 4-dimethylaminopyridine (DMAP) in NMP. The deprotection solution consisted of 20% piperidine in NMP. AA couplings were performed 1 h,4 times. Deprotection of the Fmoc groups was performed 15min,2 times. Membrane washing between couplings or deprotections was performed with NMP and ethanol. Elongation of peptides in cellulose membrane was started by coupling first the Fmoc-PEG(9)-OH (Iris Biotech) and the subsequent mixture of Fmoc-Gly-OH (25%) and Boc-Gly-OH (75%) to lower the total loading of the membrane. Afterwards, the resin was capped with the capping solution and extensively washed and soaked in bromophenol blue (BPB) as a quality control to reveal the SPOTS with a functional amino group. Then, we coupled the quasi-orthogonal group Fmoc-Glu-PP, and carried out the rest of the synthesis until peptide completion. The cellulose bound linear peptides were finally treated with a solution of 95% DCM, 3% TIPS and 2% TFA 3 times, 20 min. to remove the quasi-orthogonal group. Afterwards, the membrane was washed 5 times with DCM and neutralized with 5% DIPEA in DCM. The membrane was then washed 5 more times with DCM, 5 times with NMP and cyclized with 0.3M PyAOP and 0.3M of DIPEA in DMF for 3 h or overnight. Finally, the membrane was dried with DCM and the side-chain protecting groups were cleaved with the standard deprotection cocktail (95% TFA, 2.5% H2O and 2.5% TIPS) or with reagent K [TFA 82.5%, phenol 5%, H2O 5%, thioanisole 5% and 1,2-ethanedithiol (EDT) 2.5%] for 3 h.
SPOT membrane screening. Membranes were incubated with PBS pH 7.2+0.5% bovine serum albumin (BSA) for 1 h. After the incubation period, the membrane was dried and scanned with an Amershan Typhoon scanner, at 400V, Cy3 wavelength (532 nm). A TIF file of the screening and a file with the blank values were generated using the Image Quant software. Afterwards, a solution of 50 nM of TAMRA labelled PSD-95-PDZ2 domain was prepared in PBS pH 7.2+0.5% BSA and was added to the membrane. The membrane was left incubating in a Polymax 1040 rocking table for 1 h protected from the light. Passed the incubation time, the excess of labelled protein was removed by washing the membrane 3 times with PBS+0.5% BSA. Finally, the membrane fluorescence values were measured with the Amershan Typhoon scanner at 400V, Cy3 wavelength (532 nm). Using the Image Quant software, the TIF image of the screening and a file with the fluorescence values of the peptides with the TAMRA labelled PSD-95-PDZ2 were generated. The blank was then subtracted from the fluorescence values of the peptides screened against the TAMRA labelled PSD-95-PDZ2.
A deep mutational scan was performed on the WT scaffold, exchanging each AA to the remaining 19 L-AAs. Each array contained three copies of the individual peptides as technical replicates. Additionally, three controls were included in the design: the cyclic nNOS β-hairpin WT control (positive control), a linear nNOS peptide (cyclization control) and a cyclic nNOS β-hairpin with a F111V substitution (negative control previously tested in FP competition assays). For array screening, a mutation in PSD-95-PDZ2 residue V178 (PSD-95-PDZ2-V178C) was introduced, which was subsequently labelled with TAMRA maleimide. […]

SMILES	Relative Ki (Ki mut/Ki WT) [1]	Normalized SPOT fluorescence (Mut/WT) [2]	Ki [1]
CC[C@H](C)[C@@H]1NC(=O)[C@H]([C@@H](C)O)NC(=O)[C@H](CCCCN)NC(=O)[C@@H]2CCCN2C(=O)[C@H]([C@@H](C)O)NC(=O)CNC(=O)[C@H](CC(=O)O)NC(=O)CNC(=O)[C@H]([C@@H](C)O)NC(=O)[C@H](Cc2ccccc2)NC(=O)[C@H]([C@@H](C)O)NC(=O)[C@H]([C@@H](C)O)NC(=O)[C@H](CCC(=O)O)NC(=O)[C@H](CC(C)C)NC(=O)[C@H](Cc2c[nH]cn2)NC(=O)[C@H]([C@@H](C)O)NC(=O)[C@H](CCC(N)=O)NC(=O)CNC(=O)[C@H]2CCCN2C(=O)[C@H](CCC(N)=O)NC(=O)[C@H]([C@@H](C)O)NC(=O)[C@H](C)NC(=O)[C@H](CCCNC(=N)N)NC1=O [compound 72] (cyclo(THLETTFTGDGTPKTIRATQ[dP]GQ))	1.49	0.09	
CC[C@H](C)[C@@H]1NC(=O)[C@H]([C@@H](C)O)NC(=O)[C@H](CCCCN)NC(=O)[C@@H]2CCCN2C(=O)[C@H](CCC(=O)O)NC(=O)CNC(=O)[C@H](CC(=O)O)NC(=O)CNC(=O)[C@H]([C@@H](C)O)NC(=O)[C@H](Cc2ccccc2)NC(=O)[C@H]([C@@H](C)O)NC(=O)[C@H]([C@@H](C)O)NC(=O)[C@H](CCC(=O)O)NC(=O)[C@H](CC(C)C)NC(=O)[C@H](Cc2c[nH]cn2)NC(=O)[C@H]([C@@H](C)O)NC(=O)[C@H](CCC(N)=O)NC(=O)CNC(=O)[C@H]2CCCN2C(=O)[C@H](CCC(N)=O)NC(=O)[C@H]([C@@H](C)O)NC(=O)[C@H](C(C)C)NC(=O)[C@H](CCCNC(=N)N)NC1=O [compound 33] (cyclo(THLETTFTGDGEPKTIRVTQ[dP]GQ))	0.28	1.37	420 nM
CC[C@H](C)[C@@H]1NC(=O)[C@H]([C@@H](C)O)NC(=O)[C@H](CCCCN)NC(=O)[C@@H]2CCCN2C(=O)[C@H]([C@@H](C)O)NC(=O)CNC(=O)[C@H](CC(=O)O)NC(=O)CNC(=O)[C@H]([C@@H](C)O)NC(=O)[C@H](Cc2ccccc2)NC(=O)[C@H]([C@@H](C)O)NC(=O)[C@H]([C@@H](C)O)NC(=O)[C@H](CCC(=O)O)NC(=O)[C@H](CC(C)C)NC(=O)[C@H](Cc2c[nH]cn2)NC(=O)[C@H]([C@@H](C)O)NC(=O)[C@H](CCC(N)=O)NC(=O)CNC(=O)[C@H]2CCCN2C(=O)[C@H](CCCNC(=N)N)NC(=O)[C@H](CCCNC(=N)N)NC(=O)[C@H](C(C)C)NC(=O)[C@H](CCCNC(=N)N)NC1=O [compound 45] (cyclo(THLETTFTGDGTPKTIRVRR[dP]GQ))	1.31	3.50	
CC[C@H](C)[C@@H]1NC(=O)[C@H]([C@@H](C)O)NC(=O)[C@H](CCCCN)NC(=O)[C@@H]2CCCN2C(=O)[C@H]([C@@H](C)O)NC(=O)CNC(=O)[C@H](CC(=O)O)NC(=O)CNC(=O)[C@H]([C@@H](C)O)NC(=O)[C@H](Cc2ccccc2)NC(=O)[C@H](CC(=O)O)NC(=O)[C@H]([C@@H](C)O)NC(=O)[C@H](CCC(=O)O)NC(=O)[C@H](CC(C)C)NC(=O)[C@H](Cc2c[nH]cn2)NC(=O)[C@H]([C@@H](C)O)NC(=O)[C@H](CCC(N)=O)NC(=O)CNC(=O)[C@H]2CCCN2C(=O)[C@H](CCC(N)=O)NC(=O)[C@H]([C@@H](C)O)NC(=O)[C@H](C(C)C)NC(=O)[C@H](CCCNC(=N)N)NC1=O [compound 54] (cyclo(THLETDFTGDGTPKTIRVTQ[dP]GQ))	0.95	0.16	1420 nM
CC[C@H](C)[C@@H]1NC(=O)[C@H]([C@@H](C)O)NC(=O)[C@H](CCCCN)NC(=O)[C@@H]2CCCN2C(=O)[C@H]([C@@H](C)O)NC(=O)CNC(=O)[C@H](CC(=O)O)NC(=O)CNC(=O)[C@H]([C@@H](C)O)NC(=O)[C@H](Cc2ccccc2)NC(=O)[C@H](C)NC(=O)[C@H]([C@@H](C)O)NC(=O)[C@H](CCC(=O)O)NC(=O)[C@H](CC(C)C)NC(=O)[C@H](Cc2c[nH]cn2)NC(=O)[C@H]([C@@H](C)O)NC(=O)[C@H](CCC(N)=O)NC(=O)CNC(=O)[C@H]2CCCN2C(=O)[C@H](CCC(N)=O)NC(=O)[C@H]([C@@H](C)O)NC(=O)[C@H](C(C)C)NC(=O)[C@H](CCCNC(=N)N)NC1=O [compound 60] (cyclo(THLETAFTGDGTPKTIRVTQ[dP]GQ))	2.62	0.66	
CC[C@H](C)[C@@H]1NC(=O)[C@H]([C@@H](C)O)NC(=O)[C@H](CCCCN)NC(=O)[C@@H]2CCCN2C(=O)[C@H]([C@@H](C)O)NC(=O)[C@@H]2CCCN2C(=O)[C@H](CC(=O)O)NC(=O)CNC(=O)[C@H]([C@@H](C)O)NC(=O)[C@H](Cc2ccccc2)NC(=O)[C@H]([C@@H](C)O)NC(=O)[C@H]([C@@H](C)O)NC(=O)[C@H](CCC(=O)O)NC(=O)[C@H](CC(C)C)NC(=O)[C@H](Cc2c[nH]cn2)NC(=O)[C@H]([C@@H](C)O)NC(=O)[C@H](CCC(N)=O)NC(=O)CNC(=O)[C@H]2CCCN2C(=O)[C@H](CCC(N)=O)NC(=O)[C@H]([C@@H](C)O)NC(=O)[C@H](C(C)C)NC(=O)[C@H](CCCNC(=N)N)NC1=O [compound 30] (cyclo(THLETTFTGDPTPKTIRVTQ[dP]GQ))	0.28	2.33	420 nM
CC(C)C[C@@H]1NC(=O)[C@H](Cc2c[nH]cn2)NC(=O)[C@H]([C@@H](C)O)NC(=O)[C@H](CCC(N)=O)NC(=O)CNC(=O)[C@H]2CCCN2C(=O)[C@H](CCC(N)=O)NC(=O)[C@H]([C@@H](C)O)NC(=O)[C@H](C(C)C)NC(=O)[C@H](CCCNC(=N)N)NC(=O)[C@H](C)NC(=O)[C@H]([C@@H](C)O)NC(=O)[C@H](CCCCN)NC(=O)[C@@H]2CCCN2C(=O)[C@H]([C@@H](C)O)NC(=O)CNC(=O)[C@H](CC(=O)O)NC(=O)CNC(=O)[C@H]([C@@H](C)O)NC(=O)[C@H](Cc2ccccc2)NC(=O)[C@H]([C@@H](C)O)NC(=O)[C@H]([C@@H](C)O)NC(=O)[C@H](CCC(=O)O)NC1=O [compound 70] (cyclo(THLETTFTGDGTPKTARVTQ[dP]GQ))	1.17	0.06	1760 nM
CC[C@H](C)[C@@H]1NC(=O)[C@H]([C@@H](C)O)NC(=O)[C@H](CCCCN)NC(=O)[C@@H]2CCCN2C(=O)[C@H]([C@@H](C)O)NC(=O)CNC(=O)[C@H](CC(=O)O)NC(=O)CNC(=O)[C@H]([C@@H](C)O)NC(=O)[C@H](Cc2ccccc2)NC(=O)[C@H]([C@@H](C)O)NC(=O)[C@H]([C@@H](C)O)NC(=O)[C@H](CCC(=O)O)NC(=O)[C@H](CC(C)C)NC(=O)[C@H](C)NC(=O)[C@H]([C@@H](C)O)NC(=O)[C@H](CCC(N)=O)NC(=O)CNC(=O)[C@H]2CCCN2C(=O)[C@H](CCC(N)=O)NC(=O)[C@H]([C@@H](C)O)NC(=O)[C@H](C(C)C)NC(=O)[C@H](CCCNC(=N)N)NC1=O [compound 56] (cyclo(TALETTFTGDGTPKTIRVTQ[dP]GQ))	1.37	0.38	
